Reference: ChEMBL document CHEMBL4842384 (J Med Chem, 2021)
Values after ≈ are worked out from the molar mass of the structure shown.

Experiments:
[1] = Aqueous solubility of compound at pH 6.5; assay type: physicochemical; details: buffer
[2] = Oral bioavailability in C57BL6 mouse at 30 mg/kg; assay type: ADME, organism-based; details: in vivo
[3] = Cmax in C57BL6 mouse at 30 mg/kg, po; assay type: ADME, organism-based; parameters: route oral, dose 30 mg/kg; details: in vivo
[4] = AUC in C57BL6 mouse at 30 mg/kg, po; assay type: ADME, organism-based; parameters: dose 30 mg/kg; details: in vivo
[5] = Aqueous solubility of compound at pH 1; assay type: physicochemical; details: buffer
[6] = Permeability of compound at pH 5.5 by PAMPA assay; assay type: ADME; details: for Papp: read-out: permeability
[7] = Permeability of compound at pH 7.4 by PAMPA assay; assay type: ADME; details: for Papp: read-out: permeability
[8] = Aqueous solubility of compound at pH 7.4; assay type: physicochemical; details: buffer

solubility [1] [µg/mL] | bioavailability [2] [%] | Cmax [3] [µM] | AUC [4] [µM·h] | solubility [5] [µg/mL] | permeability [6] | permeability [7] | solubility [8] [µg/mL] | Papp [6] [×10⁻⁶ cm/s] | Papp [7] [×10⁻⁶ cm/s] | SMILES
< 1 | 15 | 0.16 | 1.1 | < 1 | Nd(Insoluble) | Nd(Insoluble) | – | – | – | COc1ccc(NC(=O)C2=C(c3ccc(C)cc3)C[C@](c3ccc(OCCCC(F)(F)F)cc3)(C(F)(F)F)NC2=O)cc1
332 (≈ 600 µM) | 88 | 4.3 | 22 | 1 (≈ 1.81 µM) | – | – | 1130 (≈ 2050 µM) | 46.6 | 34.1 | Cc1ccc(C2=C(c3nnn[nH]3)C(=O)N[C@@](c3ccc(OCCCCCC(F)(F)F)cc3)(C(F)(F)F)C2)cc1
1180 (≈ 2240 µM) | 50 | 11 | 93 | 11 (≈ 20.9 µM) | – | – | > 2450 | 47.9 | 17.9 | Cc1ccc(C2=C(c3nnn[nH]3)C(=O)N[C@@](c3ccc(OCCCC(F)(F)F)cc3)(C(F)(F)F)C2)cc1 [BMS-963272]
